Counter-ions that a name gives are not always drawn.
Tested on: mice
Test: Analgesia, thermal radiation (tail flick) test on mice, intravenous
Assay type: in vivo, mice (male NMRI)
Conditions: Mus musculus, 20 min, determined at effective maximum 20 minutes after administration, effect = latency ≥150% of pre-test average
Excerpt: Testing for analgesia using the tail flick test on mice
The analgesic effectiveness of the compounds according to the invention was investigated in the thermal radiation (tail flick) test on mice using the method of D'Amour and Smith (J. Pharm. Exp. Ther. 72, 74-79 (1941). Male NMRI mice with a weight between 20 and 24 g were used for this purpose. The animals were placed individually in special test cages and the bases of their tails were exposed to the focused thermal radiation from an electric lamp (Rhema Analgesiemeter Type 3010). The lamp intensity was adjusted so that the time from switching on the lamp until the sudden twitching away of the tail (latency of pain) was 3-5 seconds for untreated animals. Before the administration of a compound according to the invention, the animals were pre-tested twice within five minutes and the average value of these measurements was calculated as the pre-test average. The pain measurement was made 20, 40 and 60 minutes after intravenous administration. When the latency of pain increased, the maximum time of exposure was restricted to 12 seconds and an increase in the latent period to ≥150% of the pre-test average value was assessed as an analgesic effect. In order to determine the dosage-dependency, the respective compound according to the invention was applied in doses increasing logarithmically by a factor of 3-5, which included the threshold and the maximum effective dose each time. The ED50 values were determined from the number of analgesic animals by the method of Litchfield and Wilcoxon (J. Pharm. Exp. Ther. 96, […], (1949)). Determination of the ED50 was made at the effective maximum 20 minutes after intravenous administration of the substance.

SMILES | ED50 [mg/kg]
COc1cccc([C@@]2(O)CC[C@H](OCc3ccccc3)C[C@@H]2CN(C)C)c1.Cl [[(+)1], (1R,2R,4S)-4-benzyloxy-2-dimethylaminomethyl-1-(3-methoxy-phenyl)-cyclohexanol hydrochloride] | 0.049
CN(C)C[C@H]1C[C@@H](OCc2ccccc2)CC[C@]1(O)c1cccc(O)c1.Cl [(85), (+)-(1R, 2R, 4S)-3-(4-benzyloxy-2-dimethylaminomethyl-1-hydroxycyclohexyl)-phenol hydrochloride] | 0.068
CN(C)C[C@H]1C[C@@H](CCC2CCCC2)CC[C@]1(O)c1cccc(OC2CCCC2)c1 [(71), hydrochloride] | 3.35
COc1cccc([C@]2(O)CC[C@@H](OCc3ccccc3)C[C@H]2CN(C)C)c1.Cl [[(-)1], (1S,2S,4R)-4-benzyloxy-2-dimethylaminomethyl-1-(3-methoxy-phenyl)-cyclohexanol hydrochloride] | 0.822
C=C(C)CO[C@H]1CC[C@](O)(c2cccc(OC)c2)[C@@H](CN(C)C)C1 (relative stereo) [(14), (1RS,2RS,4SR)-2-dimethylaminomethyl-1-(3-methoxy-phenyl)-4-(2-methyl-2-allyloxy)-cyclohexanol hydrochloride] | 0.379
CSc1cccc([C@@]2(O)CC[C@H](OCc3ccccc3)C[C@@H]2CN(C)C)c1 [[(+)6], (1R,2R,4S)-4-benzyloxy-2-[(dimethylamino)methyl]-1-(3-methyl-sulphanyl-phenyl)-cyclohexanol hydrochloride] | 0.19
COc1cccc([C@@]2(O)CC[C@H](OCc3ccc(Cl)cc3)C[C@@H]2CN(C)C)c1.Cl [(93), (+)-(1R, 2R, 4S)-4-(4-chloro-benzyloxy)-2-dimethylaminomethyl-1-(3-methoxyphenyl)-cyclohexanol hydrochloride] | 0.37
COc1cccc([C@@]2(O)CC[C@H](Cc3ccccc3)C[C@@H]2CN(C)C)c1.Cl (racemic) [(35), (1RS,2RS,4SR)-4-benzyl-2-dimethylaminomethyl-1-(3-methoxy-phenyl)-cyclohexanol hydrochloride] | 2.43
CN(C)C[C@H]1C[C@@H](OCC2CCCC2)CC[C@]1(O)c1cccc(OC2CCCC2)c1.Cl (racemic) [(60), (1RS,2RS,4SR)-4-cyclopentylmethoxy-1-(3-cyclopentyl-oxy-phenyl)-2-dimethylaminomethyl-cyclohexanol hydrochloride] | 2.46
